Patent publication US20240124434A1, “ATF6 INHIBITORS AND USES THEREOF” (Altos Labs, Inc., priority 2018, published 2024)
Values after ≈ are worked out from the molar mass of the structure shown. Read-outs that look alike come from different tables or passages of the source.

What was measured:
ATF6 = experiment: ERSE ATF6-luciferase reporter assay (thapsigargin-induced ER stress); type: cell-based, human; details: Homo sapiens, U2OS, thapsigargin-induced ER stress, U2-OS ATF6 luc reporter cells; for inhibition at 1 µM: 8 h, 8 hr
CYP2C8 = CYP2C8 (Homo sapiens (Human), UniProt P10632); experiment: CYP inhibition in human liver microsomes; details: read-out: CYP-2C8, metabolite desethylamodiaquine
Experimental: (§1) CYP inhibition by test compounds in human liver microsomes (HLM) for seven major CYP450 isoforms CYP1A2, CYP2C9, CYP2D6, CYP2B6, CYP2C8, CYP2C19 and CYP3A4 were assessed. […] 50 μM phenacetin, 2 μM midazolam, 5 μM diclofenac, 50 μM mephenytoin, 80 μM bupropion, and 5 μM dextromethorphan were used as probe substrates of CYP1A2, CYP3A4, CYP2C9, CYP2C19, CYP2B6, and CYP2D6, respectively. The incubation times were 20 min for […], CYP2D6, CYP2C9, CYP2B6, and CYP2C8; 40 min for CYP2C19; and 10 min for CYP 3A4. Following incubations, the reactions were terminated with acetonitrile containing internal standard. The samples were centrifuged and the supernatants were analyzed for the formation of metabolites (1-hydroxymidazolam (CYP3A4), 4-hydroxydiclofenac (CYP2C9), 4-hydroxymephenytoin (CYP2C19) and dextrorphan (CYP2D6), hydroxybupropion (CYP2B6), acetaminophen (CYP1A2), desethylamodiaquine (CYP2C8)) by LC/MS/MS.

CYP2D6 = CYP2D6 (Homo sapiens (Human), UniProt P10635); experiment: CYP inhibition in human liver microsomes; details: read-out: CYP-2D6; human liver microsomes; probe substrate dextromethorphan
Experimental: as §1

CYP2B6 = CYP2B6 (Homo sapiens (Human), UniProt P20813); experiment: CYP inhibition in human liver microsomes; details: read-out: CYP-2B6; human liver microsomes; probe substrate bupropion
Experimental: as §1

CYP2C19 = CYP2C19 (Homo sapiens (Human), UniProt P33261); experiment: CYP inhibition in human liver microsomes; details: read-out: CYP-2C19; human liver microsomes; probe substrate mephenytoin
Experimental: as §1

CYP3A4 = CYP3A4 (Homo sapiens (Human), UniProt P08684); experiment: CYP inhibition in human liver microsomes; details: read-out: CYP-3A4; human liver microsomes; probe substrate midazolam
Experimental: as §1

CYP2C9 = CYP2C9 (Homo sapiens (Human), UniProt P11712); experiment: CYP inhibition in human liver microsomes; details: read-out: CYP-2C9; human liver microsomes; probe substrate diclofenac
Experimental: as §1

[1] = mouse, in vivo, po, 10 mg/kg
in vivo = details: Balb/c, mouse, po, 10 mg/kg
[2] = In vitro microsomal stability, human liver microsomes; type: in vitro ADME; details: for half-life at 1 μM / half-life at […], 1 µM: human, read-out: T1/2 @ hLM; for half-life at 1 μM / microsomal CLint at […], 1 µM / half-life at […], 1 µM / microsomal CLint at 1 μM: human liver microsomes, pH 7.4; for microsomal CLint at […], 1 µM / microsomal CLint at 1 μM: intrinsic clearance, read-out: Clint @ hLM; for Rem. @ hLM (%): remaining fraction after 30 min, 1 μM compound, 0.5 mg/mL human liver microsomes, 1 mM NADPH
Experimental: (§2) Compounds were incubated at a final concentration of 1 μM with 0.5 mg/mL human liver microsomes (hLM) (#HMMCPL; Thermo), mouse liver microsomes (mLM) (#MSMCPL; Thermo) or rat liver microsomes (rLM) (#RTMCPL; Thermo) and 1 mM reduced dihydronicotinamide-adenine dinucleotide phosphate (NADPH) (#N1630; Sigma) in 100 mM phosphate buffer (pH 7.4) at 37° C. The reactions were terminated at 0, 5, 15 and 30 min by the addition of cold acetonitrile containing 50 ng/mL propranolol as an internal standard. […] Verapamil hydrochloride (#V4369 Aldrich) was used as a positive control in all studies.

[3] = In vitro microsomal stability, mouse liver microsomes; type: in vitro ADME; details: for half-life at […], 1 µM / half-life at 1 μM: mouse, read-out: T1/2 @ mLM; for half-life at […], 1 µM / microsomal CLint at […], 1 µM / half-life at 1 μM / microsomal CLint at 1 μM: mouse liver microsomes, pH 7.4; for microsomal CLint at […], 1 µM / microsomal CLint at 1 μM: intrinsic clearance, read-out: Clint @ mLM; for Rem. @ mLM (%): remaining fraction after 30 min, 1 μM compound, 0.5 mg/mL mouse liver microsomes, 1 mM NADPH
Experimental: as §2

[4] = In vitro microsomal stability, rat liver microsomes; type: in vitro ADME; details: for microsomal CLint at […], 1 µM / microsomal CLint at 1 μM: intrinsic clearance, read-out: Clint @ rLM; for Rem. @ rLM (%): remaining fraction after 30 min, 1 μM compound, 0.5 mg/mL rat liver microsomes, 1 mM NADPH
Experimental: as §2

[5] = Kinetic solubility (nephelometry); type: physicochemical; details: aqueous buffer, kinetic from dmso stock; PBS pH 7.4, 1% DMSO, 1 hour at 37° C., light scattering at 625 nm
Experimental: Concentration (μM) was then calculated by segmental regression. Amiodarone (#A8423 Aldrich) was used as positive control.

[6] = read-out: Inh. ATF6-Luc @ 1 μM [%], 1 μM test compound
[7] = read-out: IC50 ATF6-Luc reporter [μM], dose-response 30 μM to 1 nM
[8] = rat, rat liver microsomes, pH 7.4, read-out: T1/2 @ rLM
[9] = 1 μM test compound, read-out: Inh. ATF6-Luc @ 1 μM [%]
[10] = dose-response 30 μM to 1 nM, read-out: IC50 ATF6-Luc reporter

Sequence of CYP2C9 (P11712 whole entry): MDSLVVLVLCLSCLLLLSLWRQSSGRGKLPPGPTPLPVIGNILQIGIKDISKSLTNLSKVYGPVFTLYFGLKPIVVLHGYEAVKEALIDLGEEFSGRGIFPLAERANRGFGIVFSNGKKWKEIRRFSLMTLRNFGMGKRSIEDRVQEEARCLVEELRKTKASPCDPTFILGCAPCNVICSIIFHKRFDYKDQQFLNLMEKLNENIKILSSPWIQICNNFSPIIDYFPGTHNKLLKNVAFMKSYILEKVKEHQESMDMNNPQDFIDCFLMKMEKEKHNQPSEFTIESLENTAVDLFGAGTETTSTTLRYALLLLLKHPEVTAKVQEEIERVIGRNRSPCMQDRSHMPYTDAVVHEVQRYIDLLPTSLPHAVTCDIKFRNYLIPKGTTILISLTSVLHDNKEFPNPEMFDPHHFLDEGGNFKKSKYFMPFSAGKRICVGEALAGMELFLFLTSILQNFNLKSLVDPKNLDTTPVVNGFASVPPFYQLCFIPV
Sequence of CYP2C8 (P10632 whole entry, canonical isoform): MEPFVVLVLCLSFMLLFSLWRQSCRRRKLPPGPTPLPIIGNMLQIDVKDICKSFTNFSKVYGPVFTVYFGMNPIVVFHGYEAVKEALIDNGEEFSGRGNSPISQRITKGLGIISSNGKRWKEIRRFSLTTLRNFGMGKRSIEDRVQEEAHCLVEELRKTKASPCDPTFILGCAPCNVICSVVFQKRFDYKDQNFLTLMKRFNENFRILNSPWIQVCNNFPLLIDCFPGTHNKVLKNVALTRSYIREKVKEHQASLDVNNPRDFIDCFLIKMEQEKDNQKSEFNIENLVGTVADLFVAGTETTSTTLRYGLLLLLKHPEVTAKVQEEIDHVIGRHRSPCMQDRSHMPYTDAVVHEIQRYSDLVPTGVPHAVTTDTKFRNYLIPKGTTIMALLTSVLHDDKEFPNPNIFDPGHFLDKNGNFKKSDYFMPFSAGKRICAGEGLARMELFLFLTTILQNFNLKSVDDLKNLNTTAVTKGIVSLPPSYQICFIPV
Sequence of CYP2C19 (P33261 whole entry): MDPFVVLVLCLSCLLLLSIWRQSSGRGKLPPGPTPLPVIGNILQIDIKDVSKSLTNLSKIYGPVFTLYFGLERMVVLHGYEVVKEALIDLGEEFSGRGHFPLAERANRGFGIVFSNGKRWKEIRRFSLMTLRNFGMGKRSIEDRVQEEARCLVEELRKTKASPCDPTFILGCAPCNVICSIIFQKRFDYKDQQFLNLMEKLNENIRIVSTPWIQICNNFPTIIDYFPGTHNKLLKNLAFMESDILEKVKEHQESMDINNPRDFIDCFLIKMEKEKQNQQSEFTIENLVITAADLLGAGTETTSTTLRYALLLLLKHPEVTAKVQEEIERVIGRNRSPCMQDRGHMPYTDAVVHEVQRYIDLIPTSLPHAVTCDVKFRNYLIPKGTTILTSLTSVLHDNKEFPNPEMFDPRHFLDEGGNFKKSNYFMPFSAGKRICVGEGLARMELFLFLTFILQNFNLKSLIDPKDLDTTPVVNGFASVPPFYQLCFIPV
Sequence of CYP2B6 (P20813 whole entry): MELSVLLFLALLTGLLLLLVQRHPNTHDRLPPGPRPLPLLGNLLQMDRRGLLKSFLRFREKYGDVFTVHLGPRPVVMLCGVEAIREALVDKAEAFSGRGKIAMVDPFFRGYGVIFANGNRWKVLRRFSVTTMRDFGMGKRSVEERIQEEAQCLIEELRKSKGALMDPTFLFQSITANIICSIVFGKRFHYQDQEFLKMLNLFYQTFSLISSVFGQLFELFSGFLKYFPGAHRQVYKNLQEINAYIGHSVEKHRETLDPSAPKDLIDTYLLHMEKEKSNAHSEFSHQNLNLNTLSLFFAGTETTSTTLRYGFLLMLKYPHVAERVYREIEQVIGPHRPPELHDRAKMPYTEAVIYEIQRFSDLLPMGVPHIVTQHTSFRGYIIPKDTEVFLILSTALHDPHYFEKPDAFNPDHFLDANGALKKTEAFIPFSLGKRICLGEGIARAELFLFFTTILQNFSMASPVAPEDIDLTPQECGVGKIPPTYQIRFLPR
Sequence of CYP3A4 (P08684 whole entry): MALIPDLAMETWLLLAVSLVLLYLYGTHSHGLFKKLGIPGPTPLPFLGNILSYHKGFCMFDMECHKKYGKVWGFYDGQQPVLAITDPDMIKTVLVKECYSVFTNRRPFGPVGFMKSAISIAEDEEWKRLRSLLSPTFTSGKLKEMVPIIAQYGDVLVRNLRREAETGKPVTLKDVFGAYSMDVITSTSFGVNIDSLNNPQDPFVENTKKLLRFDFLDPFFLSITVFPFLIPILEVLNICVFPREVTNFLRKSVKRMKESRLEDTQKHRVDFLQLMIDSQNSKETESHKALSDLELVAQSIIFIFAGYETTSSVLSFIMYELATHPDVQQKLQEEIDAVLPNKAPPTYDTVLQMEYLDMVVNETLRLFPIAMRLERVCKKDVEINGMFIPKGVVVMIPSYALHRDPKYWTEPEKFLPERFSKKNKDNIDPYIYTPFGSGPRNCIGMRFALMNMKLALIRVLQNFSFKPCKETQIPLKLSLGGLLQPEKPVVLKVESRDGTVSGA
Sequence of CYP2D6 (P10635 whole entry): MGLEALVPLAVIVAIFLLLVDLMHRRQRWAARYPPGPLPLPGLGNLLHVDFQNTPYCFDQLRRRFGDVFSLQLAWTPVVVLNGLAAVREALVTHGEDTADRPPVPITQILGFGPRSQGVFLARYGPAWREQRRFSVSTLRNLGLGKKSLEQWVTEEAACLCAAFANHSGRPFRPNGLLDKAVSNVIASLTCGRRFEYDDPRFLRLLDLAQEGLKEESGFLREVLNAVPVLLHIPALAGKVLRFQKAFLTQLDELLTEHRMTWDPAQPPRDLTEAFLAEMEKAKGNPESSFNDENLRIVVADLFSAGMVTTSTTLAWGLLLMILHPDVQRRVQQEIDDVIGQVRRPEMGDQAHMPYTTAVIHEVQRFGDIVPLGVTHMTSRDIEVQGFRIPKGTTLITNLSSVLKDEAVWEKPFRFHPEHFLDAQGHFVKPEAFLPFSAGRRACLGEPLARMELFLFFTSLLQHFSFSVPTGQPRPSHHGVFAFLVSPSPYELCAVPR

| SMILES | IC50 (ATF6; [7]) [µM] | half-life at 1 μM [2] [min] | microsomal CLint at […], 1 µM [2] [µL/min/mg] | Rem. @ hLM (%) [2] [%] | half-life at […], 1 µM [3] [min] | microsomal CLint at […], 1 µM [3] [µL/min/mg] | Rem. @ mLM (%) [3] [%] | microsomal CLint at […], 1 µM ([4]; pH 7.4, rat liver microsomes) [µL/min/mg] | half-life at 1 μM [4, 8] [min] | Rem. @ rLM (%) [4] [%] | solubility kinetic at 1 h [5] [µM] | half-life at 1 μM [3] [min] | IC50 (ATF6; [10]) [µM] | microsomal CLint at 1 μM ([4]; pH 7.4, rat liver microsomes) [µL/min/mg] | inhibition at 1 µM (ATF6; [6]) [%] | inhibition at 1 µM (ATF6; [9]) [%] | also measured |
| --- | --- | --- | --- | --- | --- | --- | --- | --- | --- | --- | --- | --- | --- | --- | --- | --- | --- |
| C[C@H](c1ccc(C(F)(F)F)cc1C(F)(F)F)n1cc(NC(=O)c2cc(-c3cnccn3)on2)cn1 [Compound 131, (R)—N-(1-(1-(2,4-bis(trifluoromethyl)phenyl)ethyl)-1H-pyrazol-4-yl)-5-(pyrazin-2-yl)isoxazole-3-carboxamide] | < 1 |  |  |  |  |  |  |  |  |  |  |  |  |  | > 50 |  | IC50 (CYP2C8): 43.3 µM; IC50 (CYP2D6): > 50 µM; IC50 (CYP2B6): 44.5 µM; IC50 (CYP2C19): 16.4 µM; IC50 (CYP3A4): > 50 µM; IC50 (CYP2C9): > 50 µM; AUCExtr [%] ([1]; Balb/c): 7.75%; F [%] ([1]; Balb/c): 85.9%; Vz ([1]; Balb/c): 0.831 L/kg; Last time point for AUClast [1]: 24 h; AUC(0-inf) (in vivo): 107 µg·h/mL; AUC(0-t) (in vivo): 98.7 µg·h/mL; Cmax (in vivo): 7030 ng/mL; Tmax (in vivo): 360 min; half-life (in vivo): 370 min |
| Cc1nn([C@@H](C)c2ccc(C(F)(F)F)cc2C(F)(F)F)cc1NC(=O)c1cc(-c2ccccn2)on1 [Compound 100, (S)—N-(1-(1-(2,4-bis(trifluoromethyl)phenyl)ethyl)-3-methyl-1H-pyrazol-4-yl)-5-(pyridin-2-yl)isoxazole-3-carboxamide] | < 1 | 38.2 | 36.2 | 53.3 | 19.1 | 72.6 | 34.3 | 33.4 | 41.5 | 51.4 | 4.68 (≈ 2.38 µg/mL) |  |  |  | > 50 |  |  |
| Cc1c(NC(=O)c2cc(-c3ccccn3)on2)cnn1[C@H](C)c1ccc(C(F)(F)F)cc1C(F)(F)F [Compound 97, (R)—N-(1-(1-(2,4-bis(trifluoromethyl)phenyl)ethyl)-5-methyl-1H-pyrazol-4-yl)-5-(pyridin-2-yl)isoxazole-3-carboxamide] |  | 53.6 | 25.9 | 59.3 |  | 52.2 | 44.5 | 23.6 | 58.7 | 64.4 | 2.92 (≈ 1.49 µg/mL) | 26.6 | 1 to 10 |  |  | 25 to 50 |  |
| CN(C(=O)c1cc(-c2ccccn2)on1)c1cnn(Cc2ccc(C(F)(F)F)cc2C(F)(F)F)c1 [Compound 103, N-(1-(2,4-bis(trifluoromethyl)benzyl)-1H-pyrazol-4-yl)-N-methyl-5-(pyridin-2-yl)isoxazole-3-carboxamide] |  |  | 258 | 2.1 | 5.12 | 271 | 0.94 |  | 7.24 | 5.24 | 9.37 (≈ 4.64 µg/mL) |  | 1 to 10 | 191 |  | 25 to 50 | half-life at […], 1 µM [2]: 5.38 min |
| C[C@H](c1ccc(F)cc1C(F)(F)F)n1cc(NC(=O)c2cc(-c3ccccn3)on2)cn1 [Compound 110, (R)—N-(1-(1-(4-fluoro-2-(trifluoromethyl)phenyl)ethyl)-1H-pyrazol-4-yl)-5-(pyridin-2-yl)isoxazole-3-carboxamide] |  | 27 | 51.3 | 39.72 |  | 97.7 | 20.03 | 28.7 | 48.3 | 60.99 | 4.68 (≈ 2.08 µg/mL) | 14.2 | 1 to 10 |  |  | 25 to 50 |  |

More lines, main results first:

| IC50 (ATF6; [7]) [µM] | half-life at 1 μM [2] [min] | microsomal CLint at […], 1 µM [2] [µL/min/mg] | Rem. @ hLM (%) [2] [%] | half-life at […], 1 µM [3] [min] | microsomal CLint at […], 1 µM [3] [µL/min/mg] | Rem. @ mLM (%) [3] [%] | microsomal CLint at […], 1 µM ([4]; pH 7.4, rat liver microsomes) [µL/min/mg] | half-life at 1 μM [4, 8] [min] | Rem. @ rLM (%) [4] [%] | solubility kinetic at 1 h [5] [µM] | half-life at 1 μM [3] [min] | IC50 (ATF6; [10]) [µM] | microsomal CLint at 1 μM ([4]; pH 7.4, rat liver microsomes) [µL/min/mg] | SMILES | inhibition at 1 µM (ATF6; [6]) [%] | inhibition at 1 µM (ATF6; [9]) [%] | also measured |
| --- | --- | --- | --- | --- | --- | --- | --- | --- | --- | --- | --- | --- | --- | --- | --- | --- | --- |
| 1 to 10 |  | 18.9 | 76.44 | 108 | 12.9 | 83.18 |  | 418 | 92.9 | 2.34 (≈ 1.2 µg/mL) |  |  | 3.32 | C[C@H](c1ccc(C(F)(F)F)cc1C(F)(F)F)n1cc(NC(=O)c2cnc(-c3ccccn3)s2)cn1 [Compound 104, (R)—N-(1-(1-(2,4-bis(trifluoromethyl)phenyl)ethyl)-1H-pyrazol-4-yl)-2-(pyridin-2-yl)thiazole-5-carboxamide] | 25 to 50 |  | half-life at […], 1 µM [2]: 73.2 min |
|  | 36 | 38.5 | 52.49 |  | 37.7 | 51.17 | 28.2 | 49.1 | 60.62 | 2.34 (≈ 1.16 µg/mL) | 36.7 | < 1 |  | C[C@H](c1ccc(C(F)(F)F)cc1C(F)(F)F)n1cc(NC(=O)c2cc(-c3ncccn3)on2)cn1 [Compound 101, (R)—N-(1-(1-(2,4-bis(trifluoromethyl)phenyl)ethyl)-1H-pyrazol-4-yl)-5-(pyrimidin-2-yl)isoxazole-3-carboxamide] |  | > 50 |  |
|  | 67.7 |  | 71.4 |  |  | 54.8 |  | 32.4 | 51.8 | 2.7 (≈ 1.38 µg/mL) | 35.1 | < 1 | 42.7 | CCC(c1ccc(C(F)(F)F)cc1C(F)(F)F)n1cc(NC(=O)c2cc(-c3ccccn3)on2)cn1 (stereo not shown) [Compound 1, N-(1-(1-(2,4-bis(trifluoromethyl)phenyl)propyl)-1H-pyrazol-4-yl)-5-(pyridin-2-yl)isoxazole-3-carboxamide] |  | 25 to 50 | microsomal CLint at 1 μM [2]: 20.5 µL/min/mg; microsomal CLint at 1 μM [3]: 39.5 µL/min/mg |
| < 1 | 63.2 |  | 68.0 |  |  | 67.9 | 12 |  | 84.5 |  | 62.6 |  |  | O=C(Nc1cnn(Cc2ccc(C(F)(F)F)cc2C(F)(F)F)c1)c1cc(-c2ncccn2)on1 [Compound 129, N-(1-(2,4-bis(trifluoromethyl)benzyl)-1H-pyrazol-4-yl)-5-(pyrimidin-2-yl)isoxazole-3-carboxamide] | > 50 |  | microsomal CLint at 1 μM [2]: 22 µL/min/mg; microsomal CLint at 1 μM [3]: 22 µL/min/mg; half-life at […], 1 µM [4, 8]: 114 min; IC50 (CYP2C8): > 50 µM; IC50 (CYP2D6): > 50 µM; IC50 (CYP2B6): > 50 µM; IC50 (CYP2C19): > 50 µM; IC50 (CYP3A4): > 50 µM; IC50 (CYP2C9): > 50 µM |
